According to patent publication US7183312B2, “Taxanes having a C7 heterosubstituted acetate substituent” (FSU Research Foundation, Inc., priority 2000, dated 2007):

System: HCT116
Assay: In vitro cytotoxicity measured by the cell colony formation assay
Assay type: cell-based
Details: HCT116 cells; incubated with drugs for 72 h at 37° C.; colonies counted after 7 days; ID50 = drug concentration producing 50% inhibition of colony formation; read-out: IN VITRO ID 50 (nm) HCT116
Method: In Vitro Cytotoxicity Measured by the Cell Colony Formation Assay
Four hundred cells (HCT116) were plated in 60 mm Petri dishes containing 2.7 mL of medium (modified McCoy's 5a medium containing 10% fetal bovine serum and 100 units/mL penicillin and 100 µg/mL streptomycin). The cells were incubated in a CO2 incubator at 37° C. for 5 h for attachment to the bottom of Petri dishes. The compounds identified in Example 2 were made up fresh in medium at ten times the final concentration, and then 0.3 mL of this stock solution was added to the 2.7 mL of medium in the dish. The cells were then incubated with drugs for 72 h at 37° C. At the end of incubation the drug-containing media were decanted, the dishes were rinsed with 4 mL of Hank's Balance Salt Solution (HBSS), 5 mL of fresh medium was added, and the dishes were returned to the incubator for colony formation. The cell colonies were counted using a colony counter after incubation for 7 days.

Structure (SMILES) | IC50 [nM]
COCC(=O)O[C@H]1C[C@H]2OC[C@@]2(OC(C)=O)C2[C@H](OC(=O)c3ccccc3)[C@]3(O)C[C@H](OC(=O)[C@H](O)[C@@H](NC(=O)OC(C)(C)C)c4ccco4)C(C)=C([C@@H](O)C(=O)[C@@]21C)C3(C)C (some centres unmarked) [Compound 5445] | < 1
COCC(=O)O[C@H]1C[C@H]2OC[C@@]2(OC(C)=O)C2[C@H](OC(=O)c3ccccc3)[C@]3(O)C[C@H](OC(=O)[C@H](O)[C@@H](NC(=O)C=C(C)C)c4ccco4)C(C)=C([C@@H](O)C(=O)[C@@]21C)C3(C)C (some centres unmarked) [Compound 5474] | < 1
CC(=O)OCC(=O)O[C@H]1C[C@H]2OC[C@@]2(OC(C)=O)C2[C@H](OC(=O)c3ccccc3)[C@]3(O)C[C@H](OC(=O)[C@H](O)[C@@H](NC(=O)C=C(C)C)c4ccco4)C(C)=C([C@@H](O)C(=O)[C@@]21C)C3(C)C (some centres unmarked) [Compound 5544] | < 1
CC(=O)O[C@@]12CO[C@@H]1C[C@H](OC(=O)COc1ccccc1)[C@@]1(C)C(=O)[C@H](O)C3=C(C)[C@@H](OC(=O)[C@H](O)[C@@H](NC(=O)C=C(C)C)c4ccco4)C[C@@](O)([C@@H](OC(=O)c4ccccc4)C12)C3(C)C (some centres unmarked) [Compound 5555] | < 1
CSCC(=O)O[C@H]1C[C@H]2OC[C@@]2(OC(C)=O)C2[C@H](OC(=O)c3ccccc3)[C@]3(O)C[C@H](OC(=O)[C@H](O)[C@@H](NC(=O)OC(C)(C)C)c4ccco4)C(C)=C([C@@H](O)C(=O)[C@@]21C)C3(C)C (some centres unmarked) [Compound 5600] | < 1
CC(=O)O[C@@]12CO[C@@H]1C[C@H](OC(=O)COc1ccccc1)[C@@]1(C)C(=O)[C@H](O)C3=C(C)[C@@H](OC(=O)[C@H](O)[C@@H](NC(=O)OC(C)(C)C)c4ccco4)C[C@@](O)([C@@H](OC(=O)c4ccccc4)C12)C3(C)C (some centres unmarked) [Compound 5616] | < 1
CC(=O)OCC(=O)O[C@H]1C[C@H]2OC[C@@]2(OC(C)=O)C2[C@H](OC(=O)c3ccccc3)[C@]3(O)C[C@H](OC(=O)[C@H](O)[C@@H](NC(=O)OC(C)(C)C)c4ccco4)C(C)=C([C@@H](O)C(=O)[C@@]21C)C3(C)C (some centres unmarked) [Compound 5622] | < 1
C/C=C/C(=O)N[C@@H](c1ccco1)[C@@H](O)C(=O)O[C@H]1C[C@@]2(O)[C@@H](OC(=O)c3ccccc3)C3[C@](C)(C(=O)[C@H](O)C(=C1C)C2(C)C)[C@@H](OC(=O)COc1ccccc1)C[C@H]1OC[C@@]31OC(C)=O (some centres unmarked) [Compound 5811] | < 1
C/C=C/C(=O)N[C@@H](c1ccco1)[C@@H](O)C(=O)O[C@H]1C[C@@]2(O)[C@@H](OC(=O)c3ccccc3)C3[C@](C)(C(=O)[C@H](O)C(=C1C)C2(C)C)[C@@H](OC(=O)COC)C[C@H]1OC[C@@]31OC(C)=O (some centres unmarked) [Compound 5835] | < 1
CCC(C)(C)OC(=O)NC(c1ccco1)C(O)C(=O)OC1CC2(O)C(OC(=O)c3ccccc3)C3C4(OC(C)=O)COC4CC(OC(=O)COC)C3(C)C(=O)C(O)C(=C1C)C2(C)C (centres unmarked) [Compound 6226, N-Debenzoyl-N-tert-amyloxycarbonyl-3′-desphenyl-3′-(2-furyl)-10-deacetyl-7-methoxyacetyl taxol] | < 1
CCC(C)(C)OC(=O)N[C@@H](c1ccco1)[C@@H](O)C(=O)O[C@H]1C[C@@]2(O)[C@@H](OC(=O)c3ccccc3)C3[C@](C)(C(=O)[C@H](O)C(=C1C)C2(C)C)[C@@H](OC(=O)COC(C)=O)C[C@H]1OC[C@@]31OC(C)=O (some centres unmarked) [Compound 6353] | < 1
